{"source": "ChEMBL document CHEMBL5500372", "about": "“Novel natural osthole-inspired amphiphiles as membrane targeting antibacterials against methicillin-resistant Staphylococcus aureus (MRSA)” (Eur J Med Chem, 2024)", "key": {"[1]": {"experiment": "Toxicity in female KM mouse skin abscess model infected with methicillin-resistant Staphylococcus aureus clinical isolate 16 assessed as histological abnormalities in spleen at 5 to 10 mg/kg, sc measured after 24 hrs by H and E staining based analysis", "assay_type": "organism-based", "conditions": "in vivo, dose 5-10 mg/kg"}, "Staphylococcus aureus [2]": {"system": "Staphylococcus aureus", "experiment": "Antibacterial activity against methicillin-resistant Staphylococcus aureus clinical isolate 16 infected in female KM mouse skin abscess model assessed as reduction in TNF-alpha level at 5 to 10 mg/kg, sc measured after 24 hrs by ELISA method", "assay_type": "functional, organism-based", "conditions": "dose 5-10 mg/kg"}, "[3]": {"experiment": "Toxicity in female KM mouse assessed as effect on heart at 20 mg/kg, sc measured after 24 hrs by H and E staining based analysis", "assay_type": "organism-based", "conditions": "in vivo"}, "Cell membrane [4]": {"system": "Cell membrane", "experiment": "Disruption of cell membrane in methicillin-resistant Staphylococcus aureus clinical isolate 16 assessed as increase in red fluorescence at 8 times MIC measured after 4 hrs by DAPI and PI staining based laser confocal microscopy based analysis", "assay_type": "cell membranes"}, "[5]": {"experiment": "Toxicity in female KM mouse assessed as effect on histopathological abnormalities in kidney at 20 mg/kg, sc measured after 24 hrs by H and E staining based analysis", "assay_type": "organism-based", "conditions": "in vivo"}, "[6]": {"experiment": "Toxicity in female KM mouse assessed as effect on platelet count at upto 20 mg/kg, sc measured after 24 hrs", "assay_type": "organism-based", "conditions": "in vivo"}, "Cell membrane [7]": {"system": "Cell membrane", "experiment": "Disruption of cell membrane in methicillin-resistant Staphylococcus aureus clinical isolate 16 assessed as increase in DNA leakage incubated for 4 hrs by microspectrophotometric analysis", "assay_type": "cell membranes", "conditions": "dose <= 8.0 µg/ml"}, "Staphylococcus aureus [8]": {"system": "Staphylococcus aureus", "experiment": "Antibacterial activity against methicillin-resistant Staphylococcus aureus clinical isolate 16 infected in female KM mouse skin abscess model assessed as log reduction in bacterial load at 5 mg/kg, sc measured after 24 hrs (reference value: 8.508 log10CFU/g)", "assay_type": "functional"}, "Escherichia coli": {"system": "Escherichia coli", "experiment": "Antibacterial activity against Escherichia coli ATCC 25922 measured after 18 hrs by CLSI based broth microdilution method", "assay_type": "functional"}, "[9]": {"experiment": "Toxicity in female KM mouse skin abscess model infected with methicillin-resistant Staphylococcus aureus clinical isolate 16 assessed as histological abnormalities in heart at 5 to 10 mg/kg, sc measured after 24 hrs by H and E staining based analysis", "assay_type": "organism-based", "conditions": "in vivo, dose 5-10 mg/kg"}, "[10]": {"experiment": "Toxicity in female KM mouse assessed as effect on histopathological abnormalities in heart at 20 mg/kg, sc measured after 24 hrs by H and E staining based analysis", "assay_type": "organism-based", "conditions": "in vivo"}, "Staphylococcus aureus [11]": {"system": "Staphylococcus aureus", "experiment": "Antibacterial activity against methicillin-resistant Staphylococcus aureus clinical isolate 16 infected in female KM mouse skin abscess model assessed as healthy skin on back at 10 mg/kg, sc measured after 24 hrs", "assay_type": "functional, organism-based"}, "Cell membrane [12]": {"system": "Cell membrane", "experiment": "Induction of cell membrane disruption in methicillin-resistant Staphylococcus aureus clinical isolate 16 assessed as intact cells (Q3 region) at 32 ug/ml measured after 2 hrs by SYTO-9 and PI staining based flow cytometry analysis (reference value: 96.0%)", "assay_type": "cell membranes", "conditions": "dose 32.0 µg/ml"}, "Staphylococcus aureus [13]": {"system": "Staphylococcus aureus", "experiment": "Antibacterial activity against methicillin-resistant Staphylococcus aureus clinical isolate 16 measured after 18 hrs in presence of cardiolipin by checkerboard broth dilution method", "assay_type": "functional, organism-based"}, "[14]": {"experiment": "Toxicity in female KM mouse assessed as effect on hemoglobin at upto 20 mg/kg, sc measured after 24 hrs", "assay_type": "organism-based", "conditions": "in vivo"}, "Staphylococcus aureus [15]": {"system": "Staphylococcus aureus", "experiment": "Antibacterial activity against Staphylococcus aureus ATCC 29213 measured after 18 hrs by CLSI based broth microdilution method", "assay_type": "functional"}, "Staphylococcus aureus [16]": {"system": "Staphylococcus aureus", "experiment": "Antibacterial activity against methicillin-resistant Staphylococcus aureus clinical isolate 16 infected in female KM mouse skin abscess model assessed as reduction in number of MRSA cells at 5 to 10 mg/kg, sc measured after 24 hrs", "assay_type": "functional, organism-based", "conditions": "dose 5-10 mg/kg"}, "[17]": {"experiment": "Toxicity in female KM mouse assessed as adverse effect on back skin at 5 to 20 mg/kg, sc measured after 24 hrs", "assay_type": "organism-based", "conditions": "in vivo, dose 5-20 mg/kg"}, "[18]": {"experiment": "Toxicity in female KM mouse assessed as effect on histopathological abnormalities in back skin at 20 mg/kg, sc measured after 24 hrs by H and E staining based analysis", "assay_type": "organism-based", "conditions": "in vivo"}, "[19]": {"experiment": "Toxicity in female KM mouse assessed as effect on liver at 20 mg/kg, sc measured after 24 hrs by H and E staining based analysis", "assay_type": "organism-based", "conditions": "in vivo"}, "[20]": {"experiment": "Toxicity in female KM mouse skin abscess model infected with methicillin-resistant Staphylococcus aureus clinical isolate 16 assessed as histological abnormalities in liver at 5 to 10 mg/kg, sc measured after 24 hrs by H and E staining based analysis", "assay_type": "organism-based", "conditions": "in vivo, dose 5-10 mg/kg"}, "[21]": {"experiment": "Toxicity in female KM mouse assessed as survival at 80 mg/kg, sc measured after 24 hrs", "assay_type": "organism-based", "conditions": "in vivo"}, "Cell membrane [22]": {"system": "Cell membrane", "experiment": "Induction of cell membrane disruption in methicillin-resistant Staphylococcus aureus clinical isolate 16 assessed as dead cells (Q1 region) at 16 ug/ml measured after 2 hrs by SYTO-9 and PI staining based flow cytometry analysis (reference value: 0%)", "assay_type": "cell membranes", "conditions": "dose 16.0 µg/ml"}, "[23]": {"experiment": "Toxicity in female KM mouse skin abscess model infected with methicillin-resistant Staphylococcus aureus clinical isolate 16 assessed as histological abnormalities in lung at 5 to 10 mg/kg, sc measured after 24 hrs by H and E staining based analysis", "assay_type": "organism-based", "conditions": "in vivo, dose 5-10 mg/kg"}, "Staphylococcus aureus [24]": {"system": "Staphylococcus aureus", "experiment": "Bactericidal activity against Staphylococcus aureus ATCC 29213 assessed as eradication of bacteria at 8 times MIC measured after 4 hrs by time-kill assay relative to control", "assay_type": "functional"}, "[25]": {"experiment": "Hemolytic activity in sheep erythrocyte assessed as hemolysis incubated for 1 hr by absorbance based analysis", "assay_type": "toxicity, cell-based, Ovis aries", "conditions": "sheep erythrocytes"}}, "note": "Calls of active or inactive are those of the source. The calls are words filed in the database; no cut-off is given here."}
{"smiles": "CCCCCCNC(=O)C[N+](C)(C)CCCCCOc1ccc2ccc(=O)oc2c1CC=C(C)C.[Br-]", "values": [{"measurement": "Activity", "setting": "[1]", "result": "Non-Toxic"}, {"measurement": "Activity", "setting": "Staphylococcus aureus [2]", "result": "Active"}, {"measurement": "Activity", "setting": "[3]", "result": "Non-Toxic"}, {"measurement": "Activity", "setting": "Cell membrane [4]", "result": "Active"}, {"measurement": "Activity", "setting": "[5]", "result": "Non-Toxic"}, {"measurement": "Activity", "setting": "[6]", "result": "Non-Toxic"}, {"measurement": "Activity", "setting": "Cell membrane [7]", "result": "Dose-Dependent Effect"}, {"measurement": "Activity", "setting": "Staphylococcus aureus [8]", "result": 2.962, "unit": "log10CFU/g"}, {"measurement": "MIC", "setting": "Escherichia coli", "result": 32, "unit": "mg/L"}, {"measurement": "Activity", "setting": "[9]", "result": "Non-Toxic"}, {"measurement": "Activity", "setting": "[10]", "result": "Non-Toxic"}, {"measurement": "Activity", "setting": "Staphylococcus aureus [11]", "result": "Active"}, {"measurement": "Activity", "setting": "Cell membrane [12]", "result": 0.05, "unit": "%"}, {"measurement": "Activity", "setting": "Staphylococcus aureus [13]", "result": "Active"}, {"measurement": "Activity", "setting": "[14]", "result": "Non-Toxic"}, {"measurement": "MIC", "setting": "Staphylococcus aureus [15]", "result": 1, "unit": "mg/L"}, {"measurement": "Activity", "setting": "Staphylococcus aureus [16]", "result": "Active"}, {"measurement": "Activity", "setting": "[17]", "result": "Non-Toxic"}, {"measurement": "Activity", "setting": "[18]", "result": "Non-Toxic"}, {"measurement": "Activity", "setting": "[19]", "result": "Non-Toxic"}, {"measurement": "Activity", "setting": "[20]", "result": "Non-Toxic"}, {"measurement": "Activity", "setting": "[21]", "result": "Non-Toxic"}, {"measurement": "Activity", "setting": "Cell membrane [22]", "result": 0.68, "unit": "%"}, {"measurement": "Activity", "setting": "[23]", "result": "Non-Toxic"}, {"measurement": "Activity", "setting": "Staphylococcus aureus [24]", "result": 100, "unit": "%"}, {"measurement": "HC50 at 1 h", "setting": "[25]", "result": 1040, "unit": "µg/mL"}]}
